Measurements reported in patent publication US12404262B2 (priority 2021, dated 2025).

Conditions: 1.0% DMSO, 24-hour incubation at ambient temperature, maximum theoretical 100 μM; for pH 2 solubility: 0.1N HCl, first value of the cell; for pH 7 solubility: 1×PBS buffer (pH 7.4), second value of the cell

For `CN(CCO)C(=O)N(c1nn(CC(F)(F)F)c2c(-c3ccc(C#CC(C)(C)S(C)(=O)=O)nc3[C@H](Cc3cc(F)cc(F)c3)NC(=O)Cn3nc(C(F)(F)F)c4c3C(F)(F)[C@@H]3C[C@H]43)ccc(Cl)c12)S(C)(=O)=O` [Compound 50, N—((S)-1-(3-(4-chloro-3-(N-((2-hydroxyethyl)(methyl)carbamoyl)methylsulfonamido)-1-(2,2,2-trifluoroethyl)-1H-indazol-7-yl)-6-(3-methyl-3-(methylsulfonyl)but-1-yn-1-yl)pyridin-2-yl)-2-(3,5-difluorophenyl)ethyl)-2-((3bS,4aR)-5,5-difluoro-3-(trifluoromethyl)-3b,4,4a,5-tetrahydro-1H-cyclopropa[3,4]cyclopenta[1,2-c]pyrazol-1-yl)acetamide], the “pH 2 solubility” value was 1 μM and the “pH 7 solubility” value was 2 μM.
With `CC(NC(=O)N(c1nn(CC(F)(F)F)c2c(-c3ccc(C#CC(C)(C)S(C)(=O)=O)nc3[C@H](Cc3cc(F)cc(F)c3)NC(=O)Cn3nc(C(F)(F)F)c4c3C(F)(F)[C@@H]3C[C@H]43)ccc(Cl)c12)S(C)(=O)=O)(C(=O)O)C(=O)O` [Compound 52, 2-(3-(4-chloro-7-(2-((S)-1-(2-((3bS,4aR)-5,5-difluoro-3-(trifluoromethyl)-3b,4,4a,5-tetrahydro-1H-cyclopropa[3,4]cyclopenta[1,2-c]pyrazol-1-yl)acetamido)-2-(3,5-difluorophenyl)ethyl)-6-(3-methyl-3-(methylsulfonyl)but-1-yn-1-yl)pyridin-3-yl)-1-(2,2,2-trifluoroethyl)-1H-indazol-3-yl)-3-(methylsulfonyl)ureido)-2-methylmalonic acid] the “pH 2 solubility” value was 1 μM and the “pH 7 solubility” value was 100 μM.
With `CC(C)(C#Cc1ccc(-c2ccc(Cl)c3c(N(C(=O)NCCCP(=O)(O)O)S(C)(=O)=O)nn(CC(F)(F)F)c23)c([C@H](Cc2cc(F)cc(F)c2)NC(=O)Cn2nc(C(F)(F)F)c3c2C(F)(F)[C@@H]2C[C@H]32)n1)S(C)(=O)=O` [Compound 54-1, (3-(3-(4-chloro-7-(2-((S)-1-(2-((3bS,4aR)-5,5-difluoro-3-(trifluoromethyl)-3b,4,4a,5-tetrahydro-1H-cyclopropa[3,4]cyclopenta[1,2-c]pyrazol-1-yl)acetamido)-2-(3,5-difluorophenyl)ethyl)-6-(3-methyl-3-(methylsulfonyl)but-1-yn-1-yl)pyridin-3-yl)-1-(2,2,2-trifluoroethyl)-1H-indazol-3-yl)-3-(methylsulfonyl)ureido)propyl)phosphonic acid] the “pH 2 solubility” value was 1 μM and the “pH 7 solubility” value was 14 μM.
In the case of `CC(C)(C#Cc1ccc(-c2ccc(Cl)c3c(N(C(=O)NCCCCP(=O)(O)O)S(C)(=O)=O)nn(CC(F)(F)F)c23)c([C@H](Cc2cc(F)cc(F)c2)NC(=O)Cn2nc(C(F)(F)F)c3c2C(F)(F)[C@@H]2C[C@H]32)n1)S(C)(=O)=O` [Compound 55, (4-(3-(4-chloro-7-(2-((S)-1-(2-((3bS,4aR)-5,5-difluoro-3-(trifluoromethyl)-3b,4,4a,5-tetrahydro-1H-cyclopropa[3,4]cyclopenta[1,2-c]pyrazol-1-yl)acetamido)-2-(3,5-difluorophenyl)ethyl)-6-(3-methyl-3-(methylsulfonyl)but-1-yn-1-yl)pyridin-3-yl)-1-(2,2,2-trifluoroethyl)-1H-indazol-3-yl)-3-(methylsulfonyl)ureido)butyl)phosphonic acid], the “pH 2 solubility” value is reported as 1 μM and the “pH 7 solubility” value is reported as 13 μM.
In the case of `C[C@@H](O)[C@H](NC(=O)N(c1nn(CC(F)(F)F)c2c(-c3ccc(C#CC(C)(C)S(C)(=O)=O)nc3[C@H](Cc3cc(F)cc(F)c3)NC(=O)Cn3nc(C(F)(F)F)c4c3C(F)(F)[C@@H]3C[C@H]43)ccc(Cl)c12)S(C)(=O)=O)C(=O)O` [Compound 61, ((4-chloro-7-(2-((S)-1-(2-((3bS,4aR)-5,5-difluoro-3-(trifluoromethyl)-3b,4,4a,5-tetrahydro-1H-cyclopropa[3,4]cyclopenta[1,2-c]pyrazol-1-yl)acetamido)-2-(3,5-difluorophenyl)ethyl)-6-(3-methyl-3-(methylsulfonyl)but-1-yn-1-yl)pyridin-3-yl)-1-(2,2,2-trifluoroethyl)-1H-indazol-3-yl)(methylsulfonyl)carbamoyl)-L-threonine], the “pH 2 solubility” value is reported as 1 μM and the “pH 7 solubility” value is reported as 9 μM.
For `C[C@@H](OP(=O)(O)O)[C@H](NC(=O)N(c1nn(CC(F)(F)F)c2c(-c3ccc(C#CC(C)(C)S(C)(=O)=O)nc3[C@H](Cc3cc(F)cc(F)c3)NC(=O)Cn3nc(C(F)(F)F)c4c3C(F)(F)[C@@H]3C[C@H]43)ccc(Cl)c12)S(C)(=O)=O)C(=O)O` [Compound 62, N-((4-chloro-7-(2-((S)-1-(2-((3bS,4aR)-5,5-difluoro-3-(trifluoromethyl)-3b,4,4a,5-tetrahydro-1H-cyclopropa[3,4]cyclopenta[1,2-c]pyrazol-1-yl)acetamido)-2-(3,5-difluorophenyl)ethyl)-6-(3-methyl-3-(methylsulfonyl)but-1-yn-1-yl)pyridin-3-yl)-1-(2,2,2-trifluoroethyl)-1H-indazol-3-yl)(methylsulfonyl)carbamoyl)-O-phosphono-L-threonine], the “pH 2 solubility” value was 4 μM and the “pH 7 solubility” value was 14 μM.
In the case of `CC(C)(C#Cc1ccc(-c2ccc(Cl)c3c(N(C(=O)N[C@@](C)(CC(=O)O)C(=O)O)S(C)(=O)=O)nn(CC(F)(F)F)c23)c([C@H](Cc2cc(F)cc(F)c2)NC(=O)Cn2nc(C(F)(F)F)c3c2C(F)(F)[C@@H]2C[C@H]32)n1)S(C)(=O)=O` [Compound 65, (S)-2-(3-(4-chloro-7-(2-((S)-1-(2-((3bS,4aR)-5,5-difluoro-3-(trifluoromethyl)-3b,4,4a,5-tetrahydro-1H-cyclopropa[3,4]cyclopenta[1,2-c]pyrazol-1-yl)acetamido)-2-(3,5-difluorophenyl)ethyl)-6-(3-methyl-3-(methylsulfonyl)but-1-yn-1-yl)pyridin-3-yl)-1-(2,2,2-trifluoroethyl)-1H-indazol-3-yl)-3-(methylsulfonyl)ureido)-2-methylsuccinic acid], the “pH 2 solubility” value is reported as 1 μM and the “pH 7 solubility” value is reported as 52 μM.
With `CC(C)(C#Cc1ccc(-c2ccc(Cl)c3c(N(C(=O)N[C@H](CC(=O)O)C(=O)O)S(C)(=O)=O)nn(CC(F)(F)F)c23)c([C@H](Cc2cc(F)cc(F)c2)NC(=O)Cn2nc(C(F)(F)F)c3c2C(F)(F)[C@@H]2C[C@H]32)n1)S(C)(=O)=O` [Compound 70, ((4-chloro-7-(2-((S)-1-(2-((3bS,4aR)-5,5-difluoro-3-(trifluoromethyl)-3b,4,4a,5-tetrahydro-1H-cyclopropa[3,4]cyclopenta[1,2-c]pyrazol-1-yl)acetamido)-2-(3,5-difluorophenyl)ethyl)-6-(3-methyl-3-(methylsulfonyl)but-1-yn-1-yl)pyridin-3-yl)-1-(2,2,2-trifluoroethyl)-1H-indazol-3-yl)(methylsulfonyl)carbamoyl)-D-aspartic acid] the “pH 2 solubility” value was 1 μM and the “pH 7 solubility” value was 58 μM.
In the case of `CN(C(=O)N(c1nn(CC(F)(F)F)c2c(-c3ccc(C#CC(C)(C)S(C)(=O)=O)nc3[C@H](Cc3cc(F)cc(F)c3)NC(=O)Cn3nc(C(F)(F)F)c4c3C(F)(F)[C@@H]3C[C@H]43)ccc(Cl)c12)S(C)(=O)=O)[C@@H](CC(=O)O)C(=O)O` [Compound 71, N-((4-chloro-7-(2-((S)-1-(2-((3bS,4aR)-5,5-difluoro-3-(trifluoromethyl)-3b,4,4a,5-tetrahydro-1H-cyclopropa[3,4]cyclopenta[1,2-c]pyrazol-1-yl)acetamido)-2-(3,5-difluorophenyl)ethyl)-6-(3-methyl-3-(methylsulfonyl)but-1-yn-1-yl)pyridin-3-yl)-1-(2,2,2-trifluoroethyl)-1H-indazol-3-yl)(methylsulfonyl)carbamoyl)-N-methyl-L-aspartic acid], the “pH 2 solubility” value is reported as 1 μM and the “pH 7 solubility” value is reported as 15 μM.
For `CC(C)(C#Cc1ccc(-c2ccc(Cl)c3c(N(C(=O)NCC(=O)O)S(C)(=O)=O)nn(CC(F)(F)F)c23)c([C@H](Cc2cc(F)cc(F)c2)NC(=O)Cn2nc(C(F)(F)F)c3c2C(F)(F)[C@@H]2C[C@H]32)n1)S(C)(=O)=O` [Compound 72, ((4-chloro-7-(2-((S)-1-(2-((3bS,4aR)-5,5-difluoro-3-(trifluoromethyl)-3b,4,4a,5-tetrahydro-1H-cyclopropa[3,4]cyclopenta[1,2-c]pyrazol-1-yl)acetamido)-2-(3,5-difluorophenyl)ethyl)-6-(3-methyl-3-(methylsulfonyl)but-1-yn-1-yl)pyridin-3-yl)-1-(2,2,2-trifluoroethyl)-1H-indazol-3-yl)(methylsulfonyl)carbamoyl)glycine], the “pH 2 solubility” value was 1 μM and the “pH 7 solubility” value was 9 μM.
For `CC(C)(C#Cc1ccc(-c2ccc(Cl)c3c(N(C(=O)NCCN4CCNCC4)S(C)(=O)=O)nn(CC(F)(F)F)c23)c([C@H](Cc2cc(F)cc(F)c2)NC(=O)Cn2nc(C(F)(F)F)c3c2C(F)(F)[C@@H]2C[C@H]32)n1)S(C)(=O)=O` [Compound 73, N—((S)-1-(3-(4-chloro-3-(N-((2-(piperazin-1-yl)ethyl)carbamoyl)methylsulfonamido)-1-(2,2,2-trifluoroethyl)-1H-indazol-7-yl)-6-(3-methyl-3-(methylsulfonyl)but-1-yn-1-yl)pyridin-2-yl)-2-(3,5-difluorophenyl)ethyl)-2-((3bS,4aR)-5,5-difluoro-3-(trifluoromethyl)-3b,4,4a,5-tetrahydro-1H-cyclopropa[3,4]cyclopenta[1,2-c]pyrazol-1-yl)acetamide], the “pH 2 solubility” value was 72 μM and the “pH 7 solubility” value was 16 μM.
With `CC(C)(C#Cc1ccc(-c2ccc(Cl)c3c(N(C(=O)NCCN4CCN(C(=N)N)CC4)S(C)(=O)=O)nn(CC(F)(F)F)c23)c([C@H](Cc2cc(F)cc(F)c2)NC(=O)Cn2nc(C(F)(F)F)c3c2C(F)(F)[C@@H]2C[C@H]32)n1)S(C)(=O)=O` [Compound 74, N—((S)-1-(3-(3-(N-((2-(4-carbamimidoylpiperazin-1-yl)ethyl)carbamoyl)methylsulfonamido)-4-chloro-1-(2,2,2-trifluoroethyl)-1H-indazol-7-yl)-6-(3-methyl-3-(methylsulfonyl)but-1-yn-1-yl)pyridin-2-yl)-2-(3,5-difluorophenyl)ethyl)-2-((3bS,4aR)-5,5-difluoro-3-(trifluoromethyl)-3b,4,4a,5-tetrahydro-1H-cyclopropa[3,4]cyclopenta[1,2-c]pyrazol-1-yl)acetamide] the “pH 2 solubility” value was 72 μM and the “pH 7 solubility” value was 24 μM.
